Data taken from patent US20230285570A1, “THERAPEUTICALLY USEFUL CURE-PRO MOLECULES FOR E3 LIGASE MEDIATED DEGRADATION OF PROTEINS, AND METHODS OF MAKING AND USING THEM” (CORNELL UNIVERSITY, priority 2020, published 2023).
Entries after “also recorded” stand apart in the source; their conditions may differ.

Columns and labels:
MV-4-11 cells = assay: CellTiter-Glo cell viability, MV-4-11 cells; type: cell-based; details: cotreated 1:1 with each of CRBN ligands 8046, 8047 and 8066, MV-4-11, 72 h, 10 nM-100 μM
Method in brief: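 Viability by CellTiter-Glo luminescence. One protocol: 5×10^4 MV-4-11 cells, 24 h, compounds at 1 nM-100 μM each; other: 1×10^4 cells, 72 h, 10 nM-100 μM each. BRD ligands combined 1:1 with CRBN ligands; dose-response curves fitted.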

BRD4 = BRD4 (Homo sapiens, UniProt O60885); assay: BRD protein family degradation in HCT116 cells, Western blot: BRD4; type: cell-based; parameters: endogenous in cells
Method: Namalwa, Ramosm HeLa, MCF7, or HT29 HCT116 cells (2.5-3×10^6) were treated for 24 hours with the indicated compounds solubilized in DMSO. The cells were washed in ice-cold PBS and were then lysed in RIPA lysis buffer (150 mM NaCl, 5 mM EDTA, 1% NP-40, 0.5% sodium deoxycholate, 0.1% SDS, 50 mM Tris, pH 8.0.) with Roche protease inhibitor complete cocktail and phosphatase inhibitors (10 mM sodium fluoride, 10 mM sodium pyrophosphate, 1 mM sodium orthovanadate and 20 mM β-glycerophosphate). The total protein concentrations were determined by Bradford Protein Assay (Pierce) and 10-20 μg of protein was loaded onto 4-15% Tris-Glycine gradient gels (Biorad). After standard gel electrophoresis, the separated proteins were transferred to PVDF membrane by wet transfer. The immunoblots were then blocked for 1 hour in 5% skim milk in TBST or 5% BSA in TBST, according to manufacturer's instructions, before an overnight incubation at 4° C. with indicated antibodies and membranes. Membranes were then incubated with the appropriate horseradish peroxidase-conjugated secondary antibodies (1:5,000 dilution) for 1 h at room temperature and the bands were visualized using the Clarity Max Western ECL Substrate (Biorad) and the ChemiDoc Imaging System (Biorad). Signal was detected with ECL Western Blotting Substrate (Pierce) and X-ray film processed with a Konica SRX-101 X-ray film processor or captured by Bio-Rad's Chemidoc Imaging system.
HCT116 cells (3×10^6) were treated for 24 hours with the compounds solubilized in DMSO. Compounds were added at 100 nM-10 μM each. Standardized protein samples were electrophoresed and imaged as described in the Immunoblotting section above. FIGS. 64 and 65 depict the concentration-dependence of CURE-PRO-mediated BRD2 and BRD3 degradation using MDM2 ligands.

| SMILES | loss of cellular viability (toxicity) versus monomers alone (MV-4-11 cells) | BRD4 degradation (BRD4; 1:1 with MDM2 ligands 8310 and 8312 (each), HCT116, 24 h, 100 nM-10 μM) | selectivity of degradation among BRD2, BRD3 and BRD4 (BRD4; with MDM2 ligands 8310 and 8312, HCT116, Western blot) |
| --- | --- | --- | --- |
| CCNC(=O)C[C@@H]1N=C(c2ccc(Cl)cc2)c2cc(OCCCCC(=O)Nc3cccc(B(O)O)c3)ccc2-n2c(C)nnc21 [BRD-E20, (3-(5-(((4S)-6-(4-chlorophenyl)-4-(2-(ethylamino)-2-oxoethyl)-1-methyl-4H-benzo[f][1,2,4]triazolo[4,3-a][1,4]diazepin-8-yl)oxy)pentanamido)phenyl)boronic acid] | reduced viability; also recorded: increased toxicity | – | – |
| CCNC(=O)C[C@@H]1N=C(c2ccc(Cl)cc2)c2cc(OCCOCCNC(=O)c3cccc(O)c3O)ccc2-n2c(C)nnc21 [BRD-N39, N-(2-(2-(((4S)-6-(4-chlorophenyl)-4-(2-(ethylamino)-2-oxoethyl)-1-methyl-4H-benzo[f][1,2,4]triazolo[4,3-a][1,4]diazepin-8-yl)oxy)ethoxy)ethyl)-2,3-dihydroxybenzamide] | – | caused BRD4 degradation; also recorded: Degradation is evident | some selectivity for BRD4 over BRD2 and BRD3 is noted |
